Measured values as given in the SangsterLogP compilation.

Conditions: not given

Row | Structure (SMILES) | logP
1 | O=C(COC(=O)c1ccccc1)NC1CCCCC1 | 2.81
2 | c1ccc2c(c1)Oc1ccccc1S2 | 4.54
3 | CCOc1cccnc1 | 1.44
4 | CC(C)(NC(=O)C(Br)C(C)(C)C)c1ccccc1 (centres undefined) | 3.46
5 | CNC(=N[N+](=O)[O-])NCCSCc1nc[nH]c1C | 0.13
6 | COC(=O)c1ccc(Cl)cc1 | 2.76
7 | CS(=O)(=O)N1C(=O)c2ccc(N)cc2C1=O | 0.8
8 | N#CNc1ccccc1 | 1.87
9 | Cc1ccncn1 | 0.16
10 | OCCCCl | 0.5
11 | CCCCNc1ccc(C(=O)OCCOCCOCCOCCOCCOCCOCCOCCOCCOC)cc1 | 2.45
12 | CCC(C)OC(C)=O (centres undefined) | 1.72
13 | Nc1ccc2c(c1)C(=O)N(O)C2=O | 0.16
14 | CS(C)(=O)=O | -1.34
15 | COc1ccc(CC#N)cc1 | 1.7
16 | Cn1c(N)nc2cc(C#N)ccc21 | 1.11
17 | CC(Cl)[N+](=O)[O-] (centres undefined) | 1.1
18 | CC(C)(C)Br | 1.15
19 | c1ccc(CCCc2ccccc2)cc1 | 3.43
20 | CN(C)c1ccc(C(=O)c2ccc(N(C)C)cc2)cc1 | 3.87
21 | Cc1ccc(/C=N/O)cc1 | 2.4
22 | O=S(=O)(CCl)c1ccccc1 | 1.24
23 | Nc1ccn(C2CC(CO)C(O)C2O)c(=O)n1 (centres undefined) | -2.41

Row | Structure (SMILES) | logP
24 | CCn1cnc([N+](=O)[O-])n1 | -0.23
25 | CC(C)(C)C1=Nc2ccc(Cl)cc2S(=O)(=O)N1 | 2.4
26 | CCOC(=O)COC(=O)c1cc(Oc2ccc(C(F)(F)F)cc2Cl)ccc1[N+](=O)[O-] | 3.65
27 | N#CCC(=O)c1ccccc1 | 0.97
28 | CC(=O)OC(C)c1ccccc1 (centres undefined) | 2.3
29 | COc1ccccc1NC(=O)Nc1ccccc1OC | 2.98
30 | COC(=O)Nc1c(C)cccc1C | 1.69
31 | CN(C)C(=O)c1ccccc1O | 0.44
32 | CC12CC(O)C3C(CCC4(O)CC(O)CC(O)C34CO)C1(O)CCC2C1=CC(=O)OC1 (centres undefined) | -0.02
33 | CCc1cccc(C)c1NC(=O)OC(C)C | 2.52
34 | CCOC(=O)C(C(=O)OCC)=C(C(=O)OCC)C(=O)OCC | 2.63
35 | c1ccc(-c2cnc(-c3ccccc3)o2)cc1 | 4.67
36 | CC(C)C(C#N)Cc1ccc(Cl)cc1 (centres undefined) | 3.41
37 | CC(=O)OC(C)(C)C | 1.76
38 | Cc1nc(N(C)C)nc(OC(=O)N(C)C)c1C | 1.7
39 | Cc1ccccc1CO | 1.58
40 | Oc1ccc(C(F)(F)F)cc1 | 2.82
41 | BrC(Br)(Br)Br | 3.42
42 | C=CCn1cccn1 | 0.35
43 | CN(C)/C=C/C#N | 0.47
44 | O=C(O)Cn1ccnc1[N+](=O)[O-] | -0.34
45 | O=C(CCn1cnc([N+](=O)[O-])n1)NCCO | -1.32
46 | CNC1=C(N2CC2)C(=O)C(NC)=C(N2CC2)C1=O | 0.13

Row | Structure (SMILES) | logP
47 | CCc1cccnc1 | 1.66
48 | Cc1cccc(OCC(O)CNC(C)C)c1 (centres undefined) | 2.02
49 | CCOC(=O)C(=O)Nc1ccccc1 | 1.48
50 | CNC(=O)Oc1cccc2c1OC(C)(C)O2 | 1.7
51 | C1=C\C=C/C=C\C=C/1 | 3.08
52 | Cc1ccc(C(=O)COc2c(C(=O)c3ccc(Cl)c(C)c3Cl)c(C)nn2C)cc1 | 4.69
53 | CC(=S)N(c1ccccc1)c1ccccc1 | 2.83
54 | c1ncc2c(n1)-c1cn[nH]c1-2 | 0.14
55 | CCS(=O)(=O)CC | -0.59
56 | Ic1ccc(I)cc1 | 4.11
57 | FCC1CO1 (centres undefined) | -0.16
58 | CC(C)Cc1cc([N+](=O)[O-])cc(C(C)C)c1O | 4.19
59 | Cc1ccc(N(SC(F)(Cl)Cl)S(=O)(=O)N(C)C)cc1 | 3.95
60 | O=C1CC(Sc2nc3ccccc3s2)N1 (centres undefined) | 2.3
61 | Cc1c(Cl)cc(-c2ccc(=O)[nH]n2)cc1Cl | 3.2
62 | CC(C)(C)C(O)(CCc1ccc(Cl)cc1)Cn1cncn1 (centres undefined) | 3.7
63 | CN1CCCC1 | 0.92
64 | COCC(C)OC (centres undefined) | -0.09
65 | COC(=O)CCCCCC(=O)OC | 1.38
66 | NC(=O)OCCc1cccc2c1C(=O)C(Br)=C(N1CC1)C2=O | 0.68
67 | O=C1C=CCO1 | -0.6
68 | CCCN(CCC)c1c([N+](=O)[O-])cc(S(N)(=O)=O)cc1[N+](=O)[O-] | 3.73
69 | C=CCOC(C)=O | 0.97

Row | Structure (SMILES) | logP
70 | O=Nc1ccc(NO)cc1 | 1.49
71 | CC(C)C(=O)C(C)C | 1.86
72 | Cc1cc2ccccc2cn1 | 2.68
73 | CCCCCn1cnc2c(NC(C)=O)ncnc21 | 0.98
74 | Clc1nc(-c2ccccc2)nc2ccccc12 | 4.47
75 | O=C(NCCCO)C(F)(F)Cn1ccnc1[N+](=O)[O-] | -0.64
76 | CC(C)c1ccccc1N | 2.12
77 | Cc1cscn1 | 0.97
78 | CC(C(=O)O)c1ccc(N2C(=O)C3CC=CCC3C2=O)cc1 (centres undefined) | 2.27
79 | C=CCOC1=NS(=O)(=O)c2ccccc21 | 1.4
80 | N#CCc1ccc([N+](=O)[O-])cc1 | 1.37
81 | O=c1n[n+]([O-])ccn1[C@@H]1O[C@H](CO)[C@@H](O)[C@H]1O | -2.43
82 | O=C(O)CCC(=O)c1ccc(N2Cc3ccccc3C2=O)cc1 | 1.92
83 | CCSC | 1.54
84 | c1ccc(Cn2cccn2)cc1 | 1.78
85 | Nc1ccccc1SSc1ccccc1N | 3.05
86 | C=CCOCC1CO1 (centres undefined) | 0.46
87 | O=C1C=C(Br)C(=O)c2ccccc21 | 2.44
88 | CN(C)C(=O)C12CC3CC(CC(C3)C1)C2 | 2.55
89 | N#Cc1ccc2[nH]c(N)nc2c1 | 1.13
90 | FC1(F)C(F)(F)C(F)(F)C(F)(F)C(F)(F)C1(F)F | 2.91
91 | C[C@H](C(=O)O)c1ccc(N2Cc3ccccc3C2=O)cc1 | 2.89
92 | CC1(O)CCCCC1 | 1.33

Row | Structure (SMILES) | logP
93 | Nc1cc(C(F)(F)F)ccc1Cl | 3.06
94 | CCCCSP(=O)(SCCCC)SCCCC | 3.23
95 | COC1=C(N2CC2)C(=O)C(OC)=C(N2CC2)C1=O | 0.17
96 | Cn1c(N)nc2ccc(C#N)cc21 | 1.29
97 | CCOC(=O)CCN(Cc1ccccc1)SN(C)C(=O)ON=C(C)SC | 3.43
98 | CCC(C)N(C(=O)SCc1ccccc1)C(C)CC (centres undefined) | 4.4
99 | CC(=O)N[C@@H](CC(C)C)C(=O)N[C@@H](CCCNC(=N)N)C(=O)N[C@@H](Cc1ccccc1)C(N)=O | -0.06
100 | CC(=O)Oc1ccc(N)cc1 | 0.45
101 | CCC(C)(C)Cl | 2.52
102 | CC(=O)Nc1ncc([N+](=O)[O-])s1 | 1.3
103 | CC1NC(=O)C(CC(=O)N[C@@H](Cc2c[nH]c3ccccc23)C(=O)N[C@@H](Cc2ccccc2)C(=O)N(C)Cc2ccccc2)NC1=O (some centres undefined) | 3.18
104 | CCOC(=O)CC(=O)c1ccccc1 | 1.87
105 | CCCCCCCCn1cc(C)c(=O)[nH]c1=O | 3.04
106 | CCC(=O)OC | 0.82
107 | CC(C)c1ccc(C(O)C(CO)NC(=O)C(Cl)Cl)cc1 (centres undefined) | 2.24
108 | CC1COC(=O)O1 (centres undefined) | -0.41
109 | CS(=O)(=O)CC#N | -1.42
110 | OCCCO | -1.04
111 | COC(=O)CCCC(=O)OC | 0.62
112 | O=C(Nc1ccc(Cl)cc1)c1cccnc1 | 2.53
113 | O=C(OCCCc1cnc[nH]1)c1ccccc1 | 2.64
114 | CNC(=O)c1ccccc1C(=O)c1ccccc1 | 2.09
115 | CNC(=O)CNC(=O)CCc1ccc(S(=O)(=O)N(C)C)cc1 | -0.35

Same assay, conditions: pH 1.0

Row | Structure (SMILES) | logD
116 | CC(C)(CCC(=O)O)C(=O)O | 0.67
117 | O=C(O)c1ccccc1N1C(=O)CCC1=O | 1.55

Same assay, conditions: pH 2.1

Row | Structure (SMILES) | logD
118 | CCCCCCOc1ccc(S(N)(=O)=O)cc1[N+](=O)[O-] | 3.03

Same assay, conditions: pH 3.5

Row | Structure (SMILES) | logD
119 | CC1=C(C(=O)O)N2C(=O)C(NC(=O)C(O)c3ccccc3)C2SC1 (centres undefined) | 0.46

Same assay, conditions: pH 7.0

Row | Structure (SMILES) | logD
120 | CC1(C)COC(Cn2cncn2)(c2ccc(-n3ccnc3)cc2Cl)OC1 | 2.26
121 | CC1(CO)COC(Cn2cncn2)(c2ccc(Cl)cc2Cl)OC1 (centres undefined) | 2.1
122 | COC(=O)c1ccc(NC(C)=O)cc1 | 1.64
123 | Nc1nc(Cl)c2ncn([C@@H]3O[C@H](CO)C[C@@H]3F)c2n1 | 0.28

Same assay, conditions: pH 7.1

Row | Structure (SMILES) | logD
124 | CSCCC(NC(C)=O)C(N)=O (centres undefined) | -0.6

Same assay, conditions: pH 7.4

Row | Structure (SMILES) | logD
125 | CC(C)Cn1c(=O)n(C)c(=O)c2[nH]c(CCN3CCN(C(c4ccc(F)cc4)c4ccc(F)cc4)CC3)nc21 | 4.16
126 | Cn1c([N+](=O)[O-])cnc1C=NNC(N)=S | 0.65
127 | CN(C)c1ccc2c(c1)C(c1ccccc1Cl)=NCC(=O)N2C | 2.72
128 | Cc1cc([N+](=O)[O-])cc2c1NC(=O)CN=C2c1ccccc1 | 2.33
129 | CCOC(=S)NCCn1c([N+](=O)[O-])cnc1C | 1.5
130 | ICCI | 2.71
131 | Cc1ccc(C=Cc2ncc([N+](=O)[O-])n2CO)cc1 | 2.25
132 | O=C(/C=C/c1ccc([N+](=O)[O-])o1)N/N=C/c1ccc([N+](=O)[O-])o1 | 2.22
133 | COC(=O)NCCn1c([N+](=O)[O-])cnc1C | 0.02
134 | Cn1cc(-c2ccccc2)c(=O)c(-c2cccc(C(F)(F)F)c2)c1 | 3.16
135 | Cc1cc2c3ccccc3nc-2[nH]c1N | 2.9
136 | CNC(=O)c1cccc2cccnc12 | 1.87
137 | Clc1cccc2cccnc12 | 2.44
138 | CS(=O)c1ccc2c(c1)C(c1ccccc1)=NCC(=O)N2 (centres undefined) | 0.8
139 | CC(C)(C)c1ccc(N)cc1 | 2.7
140 | Cc1nc([N+](=O)[O-])cn1COCCS(C)(=O)=O | -0.84
141 | CC(C)Cn1c(=O)n(C)c(=O)c2[nH]c(CC(O)N3CCN(C(c4ccccc4)c4ccccc4)CC3)nc21 (centres undefined) | 5.21
142 | Cc1[nH]ccc2c1[nH]c1cc(=O)ccc12 | 2.18
143 | CSc1ncc([N+](=O)[O-])n1C | 0.94
144 | CN(C(F)(F)F)S(=O)(=O)CCCn1ccnc1C=NO | 1.77
145 | CCc1cccc2cccnc12 | 2.93

Same assay, conditions: pH 8.4

Row | Structure (SMILES) | logD
146 | Cn1ccnc1 | -0.06

Same assay, conditions: pH 11.0

Row | Structure (SMILES) | logD
147 | OCCCOc1cccc(CN2CCCCC2)c1 | 2.78

Same assay, conditions: pH 11.3

Row | Structure (SMILES) | logD
148 | CC(=O)NCCCOc1cccc(CN2CCCCC2)c1 | 2.15

Same assay, conditions: pH 13.0

Row | Structure (SMILES) | logD
149 | CCOC(CC)(OCC)OCC | 1.97
150 | NC(=O)COc1ccccc1Cc1nc(N)cc(N)n1 | -0.34
151 | Nc1ncc(Cc2ccccc2Cl)c(N)n1 | 2.24
152 | CNCCNC | -0.62
153 | COc1c(C)ccc(Cc2cnc(N)nc2N)c1C(C)(C)C | 3.05
154 | CC(C)(C)NCCO | 0.41
155 | CC(C)CN(CC(O)COc1ccccc1)CC(O)COc1ccccc1 (centres undefined) | 3.46
156 | CCN(CC)CCN | 0.21
157 | CN(C)CCNCCN | -0.92
158 | NNc1ccc([N+](=O)[O-])cc1 | 1.41
159 | COc1cccc(OC)c1Cc1cnc(N)nc1N | 1.7
